According to US12168012B2, “NLRP3 inflammasome inhibitors” (Novartis AG, priority 2018, dated 2024):
pIC50: −log10 of the molar value.

Legend:
[1] = test system: NF-kB-dependent TNF-α secretion; test: TNF-α secretion assay (counterscreen); assay type: cell-based; conditions: Homo sapiens; THP-1 cells, Pam3CSK4-stimulated, 3 hours, HTRF
Procedure: Monocytic THP-1 cells were maintained according to providers' instructions in RPMI media as described above. Undifferentiated cells were plated at 50,000 cells per well in a 384-well flat-bottom cell culture plates (Greiner, #781986), and allowed to rest overnight. Experimental compounds were prepared and added as described above. TNF-α secretion was triggered by the addition of either 1 μg/mL LPS (Sigma, #L4391) or 100 ng/mL Pam3CSK4 (Invivogen, #tlrl-pms) depending on the experiment, and cells were incubated for 3 hours. 10 μL supernatant was removed, and TNF-α levels were monitored using an HTRF assay (CisBio, #62TNFPEC) according to manufacturers' instructions. Viability was monitored as described above.
IC50 values were calculated from the plot of percentage of inhibition versus the inhibitor concentration by a logistics fit according to: y=A2+(A1−A2)/(1+(x/IC50)^p) where y is the %-inhibition at the inhibitor concentration, x. A1 is the lowest inhibition value, i.e. 0%, and A2 the maximum inhibition value, i.e. 100%. The exponent, p, is the Hill coefficient. The curve fitting was conducted with an internally developed software suite. […]

NLRP3 inflammasome = test: IL-1β secretion assay; assay type: cell-based; conditions: PMA-differentiated THP-1 cells, 15 μM nigericin, HTRF
Procedure: 10 μL supernatant was removed, and IL-1p levels were monitored using an HTRF assay (CisBio, #62IL1PEC) according to manufacturers' instructions. Viability and pyroptosis was monitored with the addition of PrestoBlue cell viability reagent (Life Technologies, #A13261) directly to the cell culture plate.
IC50 values were calculated from the plot of percentage of inhibition versus the inhibitor concentration by a logistics fit according to: y=A2+(A1−A2)/(1+(x/IC50)^p) where y is the %-inhibition at the inhibitor concentration, x. A1 is the lowest inhibition value, i.e. 0%, and A2 the maximum inhibition value, i.e. 100%. The exponent, p, is the Hill coefficient. The curve fitting was conducted with an internally developed software suite.
NLRP3-dependent IL-1β secretion was stimulated in PMA-differentiated THP-1 cells by the addition of nigericin, and cytokines were measured in the […] after 3 hours. As discussed above, activation of the NLRP3 inflammasome requires both an NF-kB-dependent priming step and the addition of a NLRP3 activator.

`CC(C)c1nn(CC(=O)NC23CC(N)(C2)C3)c(=O)c2cc3sc(Cl)cc3n12` [Ex 115, N-(3-Aminobicyclo[1.1.1]pentan-1-yl)-2-(2-chloro-5-isopropyl-8-oxothieno[2′,3′:4,5]pyrrolo[1,2-d][1,2,4]triazin-7(8H)-yl)acetamide] showed a pIC50 [1] of under 4.00 and a pIC50 (NLRP3 inflammasome; Homo sapiens, THP-1, 3 h) of 6.76.

Work on `CC(C)c1nn(CC(=O)NCCO)c(=O)c2cc3sc(Cl)cc3n12` [Ex 68, 2-(2-Chloro-5-isopropyl-8-oxothieno[2′,3′:4,5]pyrrolo[1,2-d][1,2,4]triazin-7(8H)-yl)-N-(2-hydroxyethyl)acetamide] yielded a pIC50 [1] of under 4.00 and a pIC50 (NLRP3 inflammasome; Homo sapiens, THP-1, 3 h) of 7.34.

Work on `CC(C)c1nn(CC(=O)N[C@@H]2CCC(=O)N(C)C2)c(=O)c2cc3scnc3n12` [Ex 49, (R)-2-(5-Isopropyl-8-oxothiazolo[5′,4′:4,5]pyrrolo[1,2-d][1,2,4]triazin-7(8H)-yl)-N-(1-methyl-6-oxopiperidin-3-yl)acetamide] yielded a pIC50 [1] of under 4.00 and a pIC50 (NLRP3 inflammasome; 3 hours) of 7.58.

`CC(C)c1nn(CC(=O)N[C@H]2CCOC2)c(=O)c2cc3sc(Cl)cc3n12` [Ex 99, (S)-2-(2-Chloro-5-isopropyl-8-oxothieno[2′,3′:4,5]pyrrolo[1,2-d][1,2,4]triazin-7(8H)-yl)-N-(tetrahydrofuran-3-yl)acetamide] showed a pIC50 [1] of under 4.00 and a pIC50 (NLRP3 inflammasome; Homo sapiens, THP-1, 3 h) of 6.27.

For `CC(C)c1nn(CC(=O)N[C@@H]2CCCN(C3CC3)C2)c(=O)c2cc3scnc3n12` [Ex 127, (R)-N-(1-Cyclopropylpiperidin-3-yl)-2-(5-isopropyl-8-oxothiazolo[5′,4′:4,5]pyrrolo[1,2-d][1,2,4]triazin-7(8H)-yl)acetamide], the pIC50 [1] was under 4.00 and the pIC50 (NLRP3 inflammasome; Homo sapiens, THP-1, 3 h) was 8.38.

`CC(C)c1nn(CC(=O)N[C@@H]2CCC[C@H](O)C2)c(=O)c2cc3scnc3n12` [Ex 91, N-((1R,3S)-3-Hydroxycyclohexyl)-2-(5-isopropyl-8-oxothiazolo[5′,4′:4,5]pyrrolo[1,2-d][1,2,4]triazin-7(8H)-yl)acetamide] showed a pIC50 [1] of under 4.00 and a pIC50 (NLRP3 inflammasome; Homo sapiens, THP-1, 3 h) of 8.72.

For `Cc1cc2c(cc3c(=O)n(CC(=O)Nc4cccnc4)nc(C(C)C)n32)s1` [Ex 7, 2-(5-Isopropyl-2-methyl-8-oxothieno[2′,3′:4,5]pyrrolo[1,2-d][1,2,4]triazin-7(8H)-yl)-N-(pyridin-3-yl)acetamide], the pIC50 [1] was under 4.00 and the pIC50 (NLRP3 inflammasome; Homo sapiens, THP-1, 3 h) was 6.59.

In the case of `CC(C)(O)c1nn(CC(=O)Nc2cccnc2)c(=O)c2cc3sc(Cl)cc3n12` [Ex 8, 2-(2-Chloro-5-(2-hydroxypropan-2-yl)-8-oxothieno[2′,3′:4,5]pyrrolo[1,2-d][1,2,4]triazin-7(8H)-yl)-N-(pyridin-3-yl)acetamide], the pIC50 [1] was under 4.00 and the pIC50 (NLRP3 inflammasome; Homo sapiens, THP-1, 3 h) was 7.06.

`O=C(Cn1nc(C2CC2)n2c(cc3sc(F)cc32)c1=O)N[C@@H]1CCCNC1` [Ex 34, (R)-2-(5-Cyclopropyl-2-fluoro-8-oxothieno[2′,3′:4,5]pyrrolo[1,2-d][1,2,4]triazin-7(8H)-yl)-N-(piperidin-3-yl)acetamide] was tested, and the pIC50 [1] was under 4.00 and the pIC50 (NLRP3 inflammasome; Homo sapiens, THP-1, 3 h) was 7.10.

With `CC(C)c1nn(CC(=O)N[C@@H]2CCCN(CC(C)(C)O)C2)c(=O)c2cc3sc(Cl)cc3n12` [Ex 130, (R)-2-(2-Chloro-5-isopropyl-8-oxothieno[2′,3′:4,5]pyrrolo[1,2-d][1,2,4]triazin-7(8H)-yl)-N-(1-(2-hydroxy-2-methylpropyl)piperidin-3-yl)acetamide] the pIC50 [1] was under 4.00 and the pIC50 (NLRP3 inflammasome; Homo sapiens, THP-1, 3 h) was 7.69.

`CC(C)c1nn(CC(=O)NC2(CO)CC2)c(=O)c2cc3sc(Cl)cc3n12` [Ex 111, 2-(2-Chloro-5-isopropyl-8-oxothieno[2′,3′:4,5]pyrrolo[1,2-d][1,2,4]triazin-7(8H)-yl)-N-(1-(hydroxymethyl)cyclopropyl)acetamide] showed a pIC50 [1] of under 4.00 and a pIC50 (NLRP3 inflammasome; Homo sapiens, THP-1, 3 h) of 6.95.

Compound `COC(=O)C12CC(NC(=O)Cn3nc(C(C)C)n4c(cc5sc(Cl)cc54)c3=O)(C1)C2` [Ex 113, Methyl 3-(2-(2-chloro-5-isopropyl-8-oxothieno[2′,3′:4,5]pyrrolo[1,2-d][1,2,4]triazin-7(8H)-yl)acetamido)bicyclo[1.1.1]pentane-1-carboxylate] has a pIC50 [1] of under 4.00 and a pIC50 (NLRP3 inflammasome; Homo sapiens, THP-1, 3 h) of 8.24.

`CC(C)c1nn(CC(=O)N[C@H]2CC[C@H](C(=O)O)CC2)c(=O)c2cc3sc(Cl)cc3n12` [Ex 53, (1r,4r)-4-(2-(2-Chloro-5-isopropyl-8-oxothieno[2′,3′:4,5]pyrrolo[1,2-d][1,2,4]triazin-7(8H)-yl)acetamido)cyclohexane-1-carboxylic acid] gave a pIC50 [1] of under 4.00 and a pIC50 (NLRP3 inflammasome; Homo sapiens, THP-1, 3 h) of 7.47.

Work on `CC(C)(O)c1nn(CC(=O)N[C@@H]2CCCN(CC(F)(F)F)C2)c(=O)c2cc3sc(Cl)cc3n12` [Ex 82, (R)-2-(2-Chloro-5-(2-hydroxypropan-2-yl)-8-oxothieno[2′,3′:4,5]pyrrolo[1,2-d][1,2,4]triazin-7(8H)-yl)-N-(1-(2,2,2-trifluoroethyl)piperidin-3-yl)acetamide] yielded a pIC50 [1] of under 4.00 and a pIC50 (NLRP3 inflammasome; Homo sapiens, THP-1, 3 h) of 7.37.

`CC(O)c1nn(CC(=O)Nc2ccncn2)c(=O)c2cc3sc(Cl)cc3n12` (stereo not drawn) [Ex 3, 2-(2-Chloro-5-(1-hydroxyethyl)-8-oxothieno[2′,3′:4,5]pyrrolo[1,2-d][1,2,4]triazin-7(8H)-yl)-N-(pyrimidin-4-yl)acetamide] gave a pIC50 [1] of under 4.00 and a pIC50 (NLRP3 inflammasome; Homo sapiens, THP-1, 3 h) of 6.64.

`CC(C)c1nn(CC(=O)N[C@@H]2CCC[C@@](C)(O)C2)c(=O)c2cc3sc(Cl)cc3n12` [Ex 27, 2-(2-Chloro-5-isopropyl-8-oxothieno[2′,3′:4,5]pyrrolo[1,2-d][1,2,4]triazin-7(8H)-yl)-N-((1R,3R)-3-hydroxy-3-methylcyclohexyl)acetamide] showed a pIC50 [1] of under 4.00 and a pIC50 (NLRP3 inflammasome; Homo sapiens, THP-1, 3 h) of 7.74.

For `CC(C)c1nn(CC(=O)NC[C@H](C)O)c(=O)c2cc3sc(Cl)cc3n12` [Ex 69, (S)-2-(2-Chloro-5-isopropyl-8-oxothieno[2′,3′:4,5]pyrrolo[1,2-d][1,2,4]triazin-7(8H)-yl)-N-(2-hydroxypropyl)acetamide], the pIC50 [1] was under 4.00 and the pIC50 (NLRP3 inflammasome; Homo sapiens, THP-1, 3 h) was 7.23.

In the case of `CC(C)(O)c1nn(CC(=O)N[C@@H]2CCCN(CCF)C2)c(=O)c2cc3sc(Cl)cc3n12` [Ex 30, (R)-2-(2-Chloro-5-(2-hydroxypropan-2-yl)-8-oxothieno[2′,3′:4,5]pyrrolo[1,2-d][1,2,4]triazin-7(8H)-yl)-N-(1-(2-fluoroethyl)piperidin-3-yl)acetamide], the pIC50 [1] was under 4.00 and the pIC50 (NLRP3 inflammasome; Homo sapiens, THP-1, 3 h) was 7.28.

`CC(C)c1nn(CC(=O)N[C@@H]2CCC(=O)NC2)c(=O)c2cc3sc(Cl)cc3n12` [Ex 19, (R)-2-(2-Chloro-5-isopropyl-8-oxothieno[2′,3′:4,5]pyrrolo[1,2-d][1,2,4]triazin-7(8H)-yl)-N-(6-oxopiperidin-3-yl)acetamide] was tested, and the pIC50 [1] was under 4.00 and the pIC50 (NLRP3 inflammasome; Homo sapiens, THP-1, 3 h) was 7.31.

Compound `CC(C)c1nn(CC(=O)Nc2ccncn2)c(=O)c2cc3sc(Cl)cc3n12` [Ex 1, 2-(2-Chloro-5-isopropyl-8-oxothieno[2′,3′:4,5]pyrrolo[1,2-d][1,2,4]triazin-7(8H)-yl)-N-(pyrimidin-4-yl)acetamide] has a pIC50 [1] of under 4.00 and a pIC50 (NLRP3 inflammasome; Homo sapiens, THP-1, 3 h) of 7.69.

Compound `CC(C)c1nn(CC(=O)NCCC(C)(C)O)c(=O)c2cc3sc(Cl)cc3n12` [Ex 77, 2-(2-Chloro-5-isopropyl-8-oxothieno[2′,3′:4,5]pyrrolo[1,2-d][1,2,4]triazin-7(8H)-yl)-N-(3-hydroxy-3-methylbutyl)acetamide] has a pIC50 [1] of under 4.00 and a pIC50 (NLRP3 inflammasome; Homo sapiens, THP-1, 3 h) of 7.85.

`CC(C)(O)c1nn(CC(=O)N[C@@H]2CCC[C@H](O)C2)c(=O)c2cc3sc(Cl)cc3n12` [Ex 81, 2-(2-Chloro-5-(2-hydroxypropan-2-yl)-8-oxothieno[2′,3′:4,5]pyrrolo[1,2-d][1,2,4]triazin-7(8H)-yl)-N-((1R,3S)-3-hydroxycyclohexyl)acetamide] was tested, and the pIC50 [1] was under 4.00 and the pIC50 (NLRP3 inflammasome; Homo sapiens, THP-1, 3 h) was 8.41.

Work on `CC(O)c1nn(CC(=O)Nc2cccnc2)c(=O)c2cc3sc(Cl)cc3n12` (stereo not drawn) [Ex 42, 2-(2-Chloro-5-(1-hydroxyethyl)-8-oxothieno[2′,3′:4,5]pyrrolo[1,2-d][1,2,4]triazin-7(8H)-yl)-N-(pyridin-3-yl)acetamide] yielded a pIC50 [1] of under 4.00 and a pIC50 (NLRP3 inflammasome; Homo sapiens, THP-1, 3 h) of 5.96.

With `CC(C)c1nn(CC(=O)N[C@@H]2CCCN(C)C2)c(=O)c2cc3scnc3n12` [Ex 48, (R)-2-(5-Isopropyl-8-oxothiazolo[5′,4′:4,5]pyrrolo[1,2-d][1,2,4]triazin-7(8H)-yl)-N-(1-methylpiperidin-3-yl)acetamide] the pIC50 [1] was under 4.00.

With `CC(C)c1nn(CC(=O)N[C@@H]2CCCNC2)c(=O)c2cc3sc(Cl)cc3n12` [Ex 10, (R)-2-(2-Chloro-5-isopropyl-8-oxothieno[2′,3′:4,5]pyrrolo[1,2-d][1,2,4]triazin-7(8H)-yl)-N-(piperidin-3-yl)acetamide] the pIC50 [1] was under 4.00.
